Reference: PMC3679007 (PLoS ONE, 2013)
pIC50: −log10 of the molar value. Several values for one entry are separate records, joined by “and”; a condition that tells them apart may be missing. Identical values can stand only once. Like-named read-outs stand apart in the source and are kept apart here.

Legend:
[1] = molecular target: clade 2.1 HPAI H5N1 isolates from Indonesia (neuraminidase) (Influenza A virus, UniProt F5HQR3); assay type: biochemical, HPAI H5N1 avian influenza virus
[2] = molecular target: A/chicken/Cambodia/CMB07.71LC4/2007 neuraminidase (Influenza A virus (A/chicken/Cambodia/CMB07.71LC4/2007(H5N1)), UniProt E1B5P8); assay type: biochemical, HPAI H5N1 avian influenza virus
[3] = molecular target: clade 1 isolates from Viet Nam and Cambodia (neuraminidase); conditions: cited from earlier work
[4] = molecular target: A/chicken/Bangli/BBVD-563/2007 neuraminidase (clade 2.1 wild type) (Influenza A virus, UniProt F1SW80); assay type: biochemical, HPAI H5N1 avian influenza virus
[5] = tested on: A/chicken/Bangli/BBVD-562/2007, A/chicken/West Java Tangerang/PTB6/2008, A/chicken/West Java/Tja-31/2008, A/chicken/Payakumbuh/BPPVRII-307/2007 neuraminidases; assay type: biochemical
[6] = molecular target: A/chicken/Cambodia/CMB07.71LC1/2007 neuraminidase (Influenza A virus, UniProt E1B5P8); assay type: biochemical, HPAI H5N1 avian influenza virus
[7] = molecular target: A/chicken/Cambodia/CMB07.71LC2/2007 neuraminidase (Influenza A virus, UniProt E1B5P8); assay type: biochemical, HPAI H5N1 avian influenza virus
[8] = molecular target: A/chicken/Wates/126/2005 neuraminidase (clade 2.1 reference) (Influenza A virus (H5N1), UniProt Q1W1F4); assay type: biochemical, HPAI H5N1 avian influenza virus; conditions: read-out: IC50, Mean (SD)
[9] = molecular target: A/chicken/Suphanburi/2509/2004 neuraminidase (Influenza A virus (H5N1), UniProt Q5SDA6); assay type: biochemical, HPAI H5N1 avian influenza virus
[10] = molecular target: clade 1.1 HPAI H5N1 isolates from Thailand (neuraminidase) (Influenza A virus, UniProt Q5SDA6); assay type: biochemical, HPAI H5N1 avian influenza virus; conditions: read-out: IC50, Mean (SD)
[11] = in vivo; cited from earlier work
[12] = tested on: clade 2.1 viruses circulating in Indonesia (neuraminidase); conditions: cited from earlier work
[13] = molecular target: A/duck/Cambodia/CMB07.72/2007 neuraminidase (Influenza A virus, UniProt E1B5P8); assay type: biochemical, HPAI H5N1 avian influenza virus
[14] = molecular target: A/chicken/Saraburi/10713/2005 neuraminidase (Influenza A virus (A/chicken/Saraburi/10713/2005(H5N1)), UniProt Q2LDC8); assay type: biochemical, HPAI H5N1 avian influenza virus
[15] = molecular target: A/chicken/Cambodia/CMB07.71LC3/2007 neuraminidase (Influenza A virus (A/chicken/Cambodia/CMB07.71LC3/2007(H5N1)), UniProt E1B5P8); assay type: biochemical, HPAI H5N1 avian influenza virus
[16] = molecular target: A/chicken/Vietnam/08/2004 neuraminidase (clade 1.1 wild type) (Influenza A virus (H5N1), UniProt Q6DPL2); assay type: biochemical, HPAI H5N1 avian influenza virus
[17] = read-out: 60 min IC50, Preincubation step (+)
[18] = read-out: 60 min IC50, Preincubation step (−)

CCOC(=O)C1=C[C@@H](OC(CC)CC)[C@H](NC(C)=O)[C@@H](N)C1 [Oseltamivir, oseltamivir]
pIC50 ([1]; read-out: Extreme High Outliers, IC50 cut-off): < 7.20 | pIC50 ([1]; read-out: IC50, IQR (25th-75th percentile)): 7.55 to 7.67 and 7.58 to 7.69 | pIC50 ([1]; read-out: IC50, Median): 7.60 and 7.61 | pIC50 ([1]; read-out: IC50, range): 6.46 to 7.97 and 7.20 to 7.90 | pIC50 ([1]; read-out: IC50s of extreme outliers): 6.46 to 7.20 | pIC50 ([1]; read-out: IC50s of many of the outliers): < 7.30 | pIC50 ([1]; read-out: Mean and median IC50): ~7.60 | pIC50 ([1]; read-out: Median IC50): 7.60 | pIC50 ([1]; read-out: Mild High Outliers, IC50 cut-off): < 7.37 | pIC50 [2]: 9.12 | pIC50 [3]: 9.30 | Binding kinetics (in words) [4]: partial loss of slow binding, and faster dissociation | pIC50 [4, 17]: 7.71 | pIC50 [4, 18]: 7.67 | Binding kinetics (in words) [5]: no longer slow binding | pIC50 [6]: 9.11 | pIC50 [7]: 9.11 | pIC50 [8]: 7.80 and 7.70 | pIC50 [9]: 9.21 | pIC50 [10]: 9.01 | Levels in plasma [11]: 400 to 1200 nM | Levels in saliva [11]: less than 5 % of plasma levels | pIC50 [12]: 7.96 and 7.94 | pIC50 [13]: 9.19 | pIC50 [14]: 9.17 | pIC50 [15]: 9.29

CCC(CC)[C@H](NC(C)=O)[C@@H]1[C@H](O)[C@@H](C(=O)O)C[C@H]1N=C(N)N [Peramivir, peramivir]
Ratio (−)/(+) of 60 min IC50s [4]: 9 | pIC50 [4, 17]: 9.22 | pIC50 [4, 18]: 8.27 | Binding kinetics (in words) [5]: None of these viruses demonstrated loss of slow binding | Ratio (−)/(+) of 60 min IC50s [16]: 8.9 | pIC50 [16, 17]: 9.15 | pIC50 [16, 18]: 8.21

CC(=O)N[C@H]1[C@H]([C@H](O)[C@H](O)CO)OC(C(=O)O)=C[C@@H]1N=C(N)N [Zanamivir, zanamivir]
Extreme High Outliers, number of viruses [1]: 0 (>7.2) and 0 (>5.6) | Binding kinetics (in words) [5]: None of these viruses demonstrated loss of slow binding
